From US20070128217A1 (priority 2003, published 2007)

How the values were obtained:
[1] = system: control sera (pooled serum of ten healthy LUMC hospital workers; commercial negative donor pooled serum from the Dutch bloodbank); format: binding, human
[2] = system: antibodies in sera from SARS patients (sera 1a, 1b, 2, 6, 37, 62, London, SARS-yellow, SARS-green); format: binding, human
[3] = system: rabbit serum obtained by immunizing a rabbit with the SARS-CoV strain Frankfurt 1; format: binding; set-up: Binding of a rabbit serum to linear peptides / Binding of a rabbit serum to looped peptides / Rabbit serum linear peptides / Rabbit serum looped peptides / Binding of a rabbit serum to linear peptides of protein N of SARS-CoV Urbani (Rabbit serum linear peptides) / Binding of a rabbit serum to looped/cyclic peptides of protein N of SARS-CoV Urbani (Rabbit serum looped peptides): unit not given here

FVSEETGTLIVNSVL
0.1: Binding of a rabbit serum to looped peptides [3]
0.7: Binding of Control serum Blood-bank to linear peptides [1] | Binding of Control serum LUMC to looped peptides [1]
1.1: Binding of Control serum LUMC to linear peptides [1]
0.6: Binding of serum 1a to looped/cyclic peptides of protein E of SARS-CoV Urbani [2] | Binding of serum 1b to linear peptides of protein E of SARS-CoV Urbani [2] | Binding of serum 1b to looped/cyclic peptides of protein E of SARS-CoV Urbani [2] | Binding of serum 37 to looped/cyclic peptides of protein E of SARS-CoV Urbani [2] | Binding of serum SARS-green to linear peptides of protein E of SARS-CoV Urbani [2] | Binding of serum SARS-green to looped/cyclic peptides of protein E of SARS-CoV Urbani [2]
0.5: Binding of serum 2 to linear peptides of protein E of SARS-CoV Urbani [2] | Binding of serum 6 to looped/cyclic peptides of protein E of SARS-CoV Urbani [2] | Binding of serum 62 to linear peptides of protein E of SARS-CoV Urbani [2] | Binding of serum London to looped/cyclic peptides of protein E of SARS-CoV Urbani [2]
0.3: Binding of a rabbit serum to linear peptides [3]
0.8: Binding of Control Serum Blood-Bank to Looped peptides [1] | Binding of serum 1a to linear peptides of protein E of SARS-CoV Urbani [2] | Binding of serum 62 to looped/cyclic peptides of protein E of SARS-CoV Urbani [2] | Binding of serum London to linear peptides of protein E of SARS-CoV Urbani [2] | Binding of serum SARS-yellow to looped/cyclic peptides of protein E of SARS-CoV Urbani [2]
0.4: Binding of serum 2 to looped/cyclic peptides of protein E of SARS-CoV Urbani [2] | Binding of serum 6 to linear peptides of protein E of SARS-CoV Urbani [2] | Binding of serum 37 to linear peptides of protein E of SARS-CoV Urbani [2] | Binding of serum SARS-yellow to linear peptides of protein E of SARS-CoV Urbani [2]

ILTALRLCAYCCNIV
0.8: Binding of Control Serum Blood-Bank to Looped peptides [1] | Binding of Control serum Blood-bank to linear peptides [1] | Binding of Control serum LUMC to looped peptides [1] | Binding of serum 1a to linear peptides of protein E of SARS-CoV Urbani [2] | Binding of serum 6 to linear peptides of protein E of SARS-CoV Urbani [2] | Binding of serum 62 to linear peptides of protein E of SARS-CoV Urbani [2] | Binding of serum 62 to looped/cyclic peptides of protein E of SARS-CoV Urbani [2]
0.4: Binding of Control serum LUMC to linear peptides [1] | Binding of serum 2 to linear peptides of protein E of SARS-CoV Urbani [2]
0.2: Binding of serum SARS-yellow to linear peptides of protein E of SARS-CoV Urbani [2]
0.5: Binding of serum London to linear peptides of protein E of SARS-CoV Urbani [2] | Binding of serum SARS-green to linear peptides of protein E of SARS-CoV Urbani [2]
0.9: Binding of serum 1a to looped/cyclic peptides of protein E of SARS-CoV Urbani [2]
1.0: Binding of serum 2 to looped/cyclic peptides of protein E of SARS-CoV Urbani [2]
0.6: Binding of serum 1b to looped/cyclic peptides of protein E of SARS-CoV Urbani [2] | Binding of serum London to looped/cyclic peptides of protein E of SARS-CoV Urbani [2] | Binding of serum SARS-green to looped/cyclic peptides of protein E of SARS-CoV Urbani [2] | Binding of serum SARS-yellow to looped/cyclic peptides of protein E of SARS-CoV Urbani [2] | Binding of a rabbit serum to linear peptides [3] | Binding of a rabbit serum to looped peptides [3]
0.7: Binding of serum 1b to linear peptides of protein E of SARS-CoV Urbani [2] | Binding of serum 6 to looped/cyclic peptides of protein E of SARS-CoV Urbani [2] | Binding of serum 37 to linear peptides of protein E of SARS-CoV Urbani [2] | Binding of serum 37 to looped/cyclic peptides of protein E of SARS-CoV Urbani [2]

IVNSVLLFLAFVVFL
0.8: Binding of serum 1a to linear peptides of protein E of SARS-CoV Urbani [2]
0.7: Binding of Control serum LUMC to looped peptides [1] | Binding of serum 6 to linear peptides of protein E of SARS-CoV Urbani [2] | Binding of serum 37 to linear peptides of protein E of SARS-CoV Urbani [2] | Binding of serum SARS-yellow to looped/cyclic peptides of protein E of SARS-CoV Urbani [2]
0.3: Binding of serum 6 to looped/cyclic peptides of protein E of SARS-CoV Urbani [2] | Binding of serum London to looped/cyclic peptides of protein E of SARS-CoV Urbani [2] | Binding of serum SARS-green to linear peptides of protein E of SARS-CoV Urbani [2]
0.2: Binding of serum SARS-green to looped/cyclic peptides of protein E of SARS-CoV Urbani [2] | Binding of serum SARS-yellow to linear peptides of protein E of SARS-CoV Urbani [2]
0.4: Binding of Control serum LUMC to linear peptides [1] | Binding of serum 1b to looped/cyclic peptides of protein E of SARS-CoV Urbani [2] | Binding of serum 2 to linear peptides of protein E of SARS-CoV Urbani [2] | Binding of serum London to linear peptides of protein E of SARS-CoV Urbani [2]
0.5: Binding of Control Serum Blood-Bank to Looped peptides [1] | Binding of serum 2 to looped/cyclic peptides of protein E of SARS-CoV Urbani [2] | Binding of a rabbit serum to linear peptides [3] | Binding of a rabbit serum to looped peptides [3]
0.6: Binding of Control serum Blood-bank to linear peptides [1] | Binding of serum 1a to looped/cyclic peptides of protein E of SARS-CoV Urbani [2] | Binding of serum 1b to linear peptides of protein E of SARS-CoV Urbani [2] | Binding of serum 37 to looped/cyclic peptides of protein E of SARS-CoV Urbani [2] | Binding of serum 62 to linear peptides of protein E of SARS-CoV Urbani [2] | Binding of serum 62 to looped/cyclic peptides of protein E of SARS-CoV Urbani [2]

LAFVVFLLVTLAILT
0.7: Binding of serum 6 to linear peptides of protein E of SARS-CoV Urbani [2] | Binding of serum 37 to linear peptides of protein E of SARS-CoV Urbani [2] | Binding of serum 62 to linear peptides of protein E of SARS-CoV Urbani [2]
0.2: Binding of a rabbit serum to looped peptides [3]
0.3: Binding of serum SARS-green to linear peptides of protein E of SARS-CoV Urbani [2]
0.4: Binding of serum SARS-yellow to looped/cyclic peptides of protein E of SARS-CoV Urbani [2]
0.1: Binding of serum SARS-yellow to linear peptides of protein E of SARS-CoV Urbani [2]
0.6: Binding of Control serum Blood-bank to linear peptides [1] | Binding of Control serum LUMC to looped peptides [1] | Binding of serum 37 to looped/cyclic peptides of protein E of SARS-CoV Urbani [2] | Binding of serum 62 to looped/cyclic peptides of protein E of SARS-CoV Urbani [2] | Binding of serum London to linear peptides of protein E of SARS-CoV Urbani [2]
0.8: Binding of Control Serum Blood-Bank to Looped peptides [1] | Binding of serum 1a to linear peptides of protein E of SARS-CoV Urbani [2]
0.5: Binding of Control serum LUMC to linear peptides [1] | Binding of serum 1a to looped/cyclic peptides of protein E of SARS-CoV Urbani [2] | Binding of serum 1b to linear peptides of protein E of SARS-CoV Urbani [2] | Binding of serum 1b to looped/cyclic peptides of protein E of SARS-CoV Urbani [2] | Binding of serum 2 to linear peptides of protein E of SARS-CoV Urbani [2] | Binding of serum 2 to looped/cyclic peptides of protein E of SARS-CoV Urbani [2] | Binding of serum 6 to looped/cyclic peptides of protein E of SARS-CoV Urbani [2] | Binding of serum London to looped/cyclic peptides of protein E of SARS-CoV Urbani [2] | Binding of serum SARS-green to looped/cyclic peptides of protein E of SARS-CoV Urbani [2] | Binding of a rabbit serum to linear peptides [3]

LAILTALRLCAYCCN
0.6: Binding of Control serum LUMC to linear peptides [1] | Binding of serum 2 to looped/cyclic peptides of protein E of SARS-CoV Urbani [2] | Binding of serum 37 to looped/cyclic peptides of protein E of SARS-CoV Urbani [2] | Binding of a rabbit serum to linear peptides [3] | Binding of a rabbit serum to looped peptides [3]
0.2: Binding of serum SARS-yellow to linear peptides of protein E of SARS-CoV Urbani [2]
0.4: Binding of serum 1b to looped/cyclic peptides of protein E of SARS-CoV Urbani [2] | Binding of serum London to looped/cyclic peptides of protein E of SARS-CoV Urbani [2]
0.7: Binding of Control Serum Blood-Bank to Looped peptides [1] | Binding of Control serum Blood-bank to linear peptides [1] | Binding of serum 1b to linear peptides of protein E of SARS-CoV Urbani [2] | Binding of serum 62 to looped/cyclic peptides of protein E of SARS-CoV Urbani [2]
0.8: Binding of Control serum LUMC to looped peptides [1] | Binding of serum 1a to linear peptides of protein E of SARS-CoV Urbani [2] | Binding of serum 1a to looped/cyclic peptides of protein E of SARS-CoV Urbani [2] | Binding of serum 37 to linear peptides of protein E of SARS-CoV Urbani [2] | Binding of serum 62 to linear peptides of protein E of SARS-CoV Urbani [2] | Binding of serum SARS-yellow to looped/cyclic peptides of protein E of SARS-CoV Urbani [2]
0.5: Binding of serum 2 to linear peptides of protein E of SARS-CoV Urbani [2] | Binding of serum 6 to linear peptides of protein E of SARS-CoV Urbani [2] | Binding of serum 6 to looped/cyclic peptides of protein E of SARS-CoV Urbani [2] | Binding of serum London to linear peptides of protein E of SARS-CoV Urbani [2] | Binding of serum SARS-green to linear peptides of protein E of SARS-CoV Urbani [2] | Binding of serum SARS-green to looped/cyclic peptides of protein E of SARS-CoV Urbani [2]
